US9499550B2 (BRISTOL-MYERS SQUIBB COMPANY, priority 2012, dated 2016)
Where two headings read alike, the source gives them in different places.

What was measured:
[1] = tested on: HCV genotype 1b (Con1) replicon in HUH-7 cells; assay: HCV replicon luciferase reporter assay, genotype 1b; assay type: cell-based; settings: Hepatitis C virus, Huh-7, 72 h, 3 days incubation
Method in brief: (§1)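 Replicon inhibition for both genotypes was measured as Renilla luciferase signal (EnduRen, 7.5 μM final, 2 h) after 3-day, 37° C exposure of replicon-bearing HUH-7 cells in 4% FCS DMEM, 0.5% DMSO. The 1b construct carries S1179I; the 1a H77 construct carries P1496L and S2204I. Twenty-point, 3-fold dilutions were fitted four-parametrically for EC50, and CC50 was taken from multiplexed Cell Titer-Blue.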

[2] = tested on: HCV genotype 1a (H77 strain) replicon in HUH-7 cells; assay: HCV replicon luciferase reporter assay, genotype 1a; assay type: cell-based; settings: Hepatitis C virus, Huh-7, 72 h, 3 days incubation
Method in brief: as §1

[3] = HCV genotype 1b replicon luciferase, read-out: LE_1b (EC50, range)
[4] = HCV genotype 1a replicon luciferase, read-out: LE_1a (EC50, range)
[5] = HCV genotype 1b replicon luciferase assay, range class, read-out: LE_1b (EC50, range)
[6] = HCV genotype 1a replicon luciferase assay, range class, read-out: LE_1a (EC50, range)

| Compound | EC50 [1, 3] | EC50 [2, 4] | other results |
| --- | --- | --- | --- |
| C[C@H]1CC/C=C\[C@@H]2C[C@@]2(C(=O)NS(=O)(=O)C2CC2)NC(=O)[C@@H]2C[C@@H](Oc3nccc4c5c(ccc34)N(C)CCO5)CN2C(=O)[C@@H](NC(=O)OC(C)(C)C)[C@H](C)C1 [Compound 5275, tert-butyl ((2R,6S,7R,9S,13aS,14aR,16aS,Z)-14a-((cyclopropylsulfonyl)carbamoyl)-7,9-dimethyl-2-((4-methyl-3,4-dihydro-2H-[1,4]oxazino[2,3-f]isoquinolin-7-yl)oxy)-5,16-dioxo-1,2,3,5,6,7,8,9,10,11,13a,14,14a,15,16,16a-hexadecahydrocyclopropa[e]pyrrolo[1,2-a][1,4]diazacyclopentadecin-6-yl)carbamate] | < 5.46 nM | < 5.46 nM | – |
| CC(C)n1nc(O[C@@H]2C[C@H]3C(=O)N[C@]4(C(=O)NS(=O)(=O)C5(C)CC5)C[C@H]4/C=C\CC[C@@H](C)C[C@@H](C)[C@H](NC(=O)OC(C)(C)C)C(=O)N3C2)c2ccccc2c1=O [Compound 1004, tert-butyl ((2R,6S,7R,9R,13aS,14aR,16aS,Z)-2-((3-isopropyl-4-oxo-3,4-dihydrophthalazin-1-yl)oxy)-7,9-dimethyl-14a-(((1-methylcyclopropyl)sulfonyl)carbamoyl)-5,16-dioxo-1,2,3,5,6,7,8,9,10,11,13a,14,14a,15,16,16a-hexadecahydrocyclopropa[e]pyrrolo[1,2-a][1,4]diazacyclopentadecin-6-yl)carbamate] | – | – | EC50 [1, 5]: 4.82 to 103 nM; EC50 ([1]; HCV genotype 1b replicon luciferase assay, read-out: LE_1b (EC50)): 48.8 nM; EC50 [2, 6]: > 87.4 nM; EC50 ([2]; HCV genotype 1a replicon luciferase assay, read-out: LE_1a (EC50)): 110 nM |
| COc1ccc2c(O[C@@H]3C[C@H]4C(=O)N[C@]5(C(=O)NS(=O)(=O)C6(C)CC6)C[C@H]5/C=C\CC[C@@H](C)C[C@@H](C)[C@H](NC(=O)OC(C)(C)C)C(=O)N4C3)ncnc2c1 [Compound 4144, tert-butyl (2R,6S,7R,9R,13aS,14aR,16aS,Z)-2-(7-methoxyquinazolin-4-yloxy)-7,9-dimethyl-14a-(1-methylcyclopropylsulfonylcarbamoyl)-5,16-dioxo-1,2,3,5,6,7,8,9,10,11,13a,14,14a,15,16,16a-hexadecahydrocyclopropa[e]pyrrolo[1,2-a][1,4]diazacyclopentadecin-6-ylcarbamate] | < 5.46 nM | < 5.46 nM | – |
| COc1ccc2c(O[C@@H]3C[C@H]4C(=O)N[C@]5(C(=O)NS(=O)(=O)C6(Cl)CC6)C[C@H]5/C=C\CC[C@@H](C)C[C@@H](C)[C@H](NC(=O)OC(C)(C)C(F)(F)F)C(=O)N4C3)ncc(OC)c2c1 [Compound 4124] | – | – | EC50 ([1]; GETYPE1B, HCV genotype 1b replicon luciferase, read-out: LE_1b (EC50, range)): < 5.46 nM; EC50 ([2]; GETYPE1A, HCV genotype 1a replicon luciferase, read-out: LE_1a (EC50, range)): < 5.46 nM |
| C[C@@H]1CC/C=C\[C@@H]2C[C@@]2(C(=O)NS(=O)(=O)C2(C)CC2)NC(=O)[C@@H]2C[C@@H](Oc3cnc4ccc(F)cc4n3)CN2C(=O)[C@@H](NC(=O)OC(C)(C)C)[C@H](C)C1 [Compound 4179, tert-butyl (2R,6S,7R,9R,13aS,14aR,16aS,Z)-2-(7-fluoroquinoxalin-2-yloxy)-7,9-dimethyl-14a-(1-methylcyclopropylsulfonylcarbamoyl)-5,16-dioxo-1,2,3,5,6,7,8,9,10,11,13a,14,14a,15,16,16a-hexadecahydrocyclopropa[e]pyrrolo[1,2-a][1,4]diazacyclopentadecin-6-ylcarbamate] | < 5.46 nM | < 5.46 nM | – |
| COc1cnc(O[C@@H]2C[C@H]3C(=O)N[C@]4(C(=O)NS(=O)(=O)C5(CF)CC5)C[C@H]4/C=C\CC[C@@H](C)C[C@@H](C)[C@H](NC(=O)OC4COC4)C(=O)N3C2)c2ccccc12 [Compound 1041, oxetan-3-yl ((2R,6S,7R,9R,13aS,14aR,16aS,Z)-14a-(((1-(fluoromethyl)cyclopropyl)sulfonyl)carbamoyl)-2-((4-methoxyisoquinolin-1-yl)oxy)-7,9-dimethyl-5,16-dioxo-1,2,3,5,6,7,8,9,10,11,13a,14,14a,15,16,16a-hexadecahydrocyclopropa[e]pyrrolo[1,2-a][1,4]diazacyclopentadecin-6-yl)carbamate] | – | – | EC50 [1, 5]: < 5.46 nM; EC50 [2, 6]: 4.82 to 103 nM |
| COc1nnc(O[C@@H]2C[C@H]3C(=O)N[C@]4(C(=O)NS(=O)(=O)C5(C)CC5)C[C@H]4/C=C\CC[C@H](C)C[C@@H](C)[C@H](NC(=O)O[C@@H]4C[C@@H]5C[C@@H]5C4)C(=O)N3C2)c2ccccc12 [Compound 5013, (1R,3r,5S)-bicyclo[3.1.0]hexan-3-yl((2R,6S,7R,9S,13aS,14aR,16aS,Z)-2-((4-methoxyphthalazin-1-yl)oxy)-7,9-dimethyl-14a-(((1-methylcyclopropyl)sulfonyl)carbamoyl)-5,16-dioxo-1,2,3,5,6,7,8,9,10,11,13a,14,14a,15,16,16a-hexadecahydrocyclopropa[e]pyrrolo[1,2-a][1,4]diazacyclopentadecin-6-yl)carbamate] | < 5.46 nM | < 5.46 nM | – |
| C[C@@H]1CC/C=C\[C@@H]2C[C@@]2(C(=O)NS(=O)(=O)C2(CF)CC2)NC(=O)[C@@H]2C[C@@H](Oc3nc4c(c5ccccc35)CCCO4)CN2C(=O)[C@@H](NC(=O)OC(C)(C)C(F)(F)F)[C@H](C)C1 [Compound 6050, 1,1,1-trifluoro-2-methylpropan-2-yl((2R,6S,7R,9R,13aS,14aR,16aS,Z)-2-((2,3-dihydro-1H-pyrano[2,3-c]isoquinolin-6-yl)oxy)-14a-(((1-(fluoromethyl)cyclopropyl)sulfonyl)carbamoyl)-7,9-dimethyl-5,16-dioxo-1,2,3,5,6,7,8,9,10,11,13a,14,14a,15,16,16a-hexadecahydrocyclopropa[e]pyrrolo[1,2-a][1,4]diazacyclopentadecin-6-yl)carbamate] | 0.1 to 0.5 nM | 1.01 to 5 nM | – |
| COc1cc(F)cc2c(O[C@@H]3C[C@H]4C(=O)N[C@]5(C(=O)NS(=O)(=O)C6(C)CC6)C[C@H]5/C=C\CC[C@@H](C)C[C@@H](C)[C@H](NC(=O)O[C@@H]5C[C@@H]6C[C@@H]6C5)C(=O)N4C3)nccc12 [Compound 3160, (1R,3r,5S)-bicyclo[3.1.0]hexan-3-yl((2R,6S,7R,9R,13aS,14aR,16aS,Z)-2-((7-fluoro-5-methoxyisoquinolin-1-yl)oxy)-7,9-dimethyl-14a-(((1-methylcyclopropyl)sulfonyl)carbamoyl)-5,16-dioxo-1,2,3,5,6,7,8,9,10,11,13a,14,14a,15,16,16a-hexadecahydrocyclopropa[e]pyrrolo[1,2-a][1,4]diazacyclopentadecin-6-yl)carbamate] | – | – | EC50 [1, 5]: < 5.46 nM; EC50 [2, 6]: < 5.46 nM |
| COc1cnc(O[C@@H]2C[C@H]3C(=O)N[C@]4(C(=O)NS(=O)(=O)C5(F)CC5)C[C@H]4/C=C\CC[C@@H](C)C[C@@H](C)[C@H](NC(=O)OCC(C)(C)C)C(=O)N3C2)c2cc(F)ccc12 [Compound 4047, neopentyl (2R,6S,7R,9R,13aS,14aR,16aS,Z)-2-(7-fluoro-4-methoxyisoquinolin-1-yloxy)-14a-(1-fluorocyclopropylsulfonylcarbamoyl)-7,9-dimethyl-5,16-dioxo-1,2,3,5,6,7,8,9,10,11,13a,14,14a,15,16,16a-hexadecahydrocyclopropa[e]pyrrolo[1,2-a][1,4]diazacyclopentadecin-6-ylcarbamate] | < 5.46 nM | < 5.46 nM | – |
| COc1cnc(O[C@@H]2C[C@H]3C(=O)N[C@]4(C(=O)NS(=O)(=O)C5(CF)CC5)C[C@H]4CCCC[C@@H](C)C[C@@H](C)[C@H](NC(=O)NC(C)(C)C)C(=O)N3C2)c2ccccc12 [Compound 5120, (2R,6S,7R,9R,13aR,14aR,16aS)-6-(3-(tert-butyl)ureido)-N-((1-(fluoromethyl)cyclopropyl)sulfonyl)-2-((4-methoxyisoquinolin-1-yl)oxy)-7,9-dimethyl-5,16-dioxooctadecahydrocyclopropa[e]pyrrolo[1,2-a][1,4]diazacyclopentadecine-14a-carboxamide] | < 5.46 nM | < 5.46 nM | – |
| COc1ccc2c(O[C@@H]3C[C@H]4C(=O)N[C@]5(C(=O)NS(=O)(=O)C6(C)CC6)C[C@H]5/C=C\CC[C@@H](C)C[C@@H](C)[C@H](NC(=O)OC(C)(C)C)C(=O)N4C3)ncc(F)c2c1 [Compound 4374, tert-butyl ((2R,6S,7R,9R,13aS,14aR,16aS,Z)-2-((4-fluoro-6-methoxyisoquinolin-1-yl)oxy)-7,9-dimethyl-14a-(((1-methylcyclopropyl)sulfonyl)carbamoyl)-5,16-dioxo-1,2,3,5,6,7,8,9,10,11,13a,14,14a,15,16,16a-hexadecahydrocyclopropa[e]pyrrolo[1,2-a][1,4]diazacyclopentadecin-6-yl)carbamate] | 0.1 to 0.5 nM | 1.01 to 5 nM | – |
| CC[C@@H]1C[C@H](C)CC/C=C\[C@@H]2C[C@@]2(C(=O)NS(=O)(=O)C2(C)CC2)NC(=O)[C@@H]2C[C@@H](Oc3nccc4cc(OC)ccc34)CN2C(=O)[C@H]1NC(=O)OC(C)(C)C(F)F [Compound 5523, 1,1-difluoro-2-methylpropan-2-yl((2R,6S,7R,9R,13aS,14aR,16aS,Z)-7-ethyl-2-((6-methoxyisoquinolin-1-yl)oxy)-9-methyl-14a-(((1-methylcyclopropyl)sulfonyl)carbamoyl)-5,16-dioxo-1,2,3,5,6,7,8,9,10,11,13a,14,14a,15,16,16a-hexadecahydrocyclopropa[e]pyrrolo[1,2-a][1,4]diazacyclopentadecin-6-yl)carbamate] | 0.51 to 1 nM | 1.01 to 5 nM | – |
